According to patent US6391301B1, “Agent for identifying and treating metastasizing tumors” (Forschungszentrum Karlsruhe GmbH, priority 1998, dated 2002):

These compounds were tested on M-N#1 antibody binding to proteins in lysates from MT-450 cells (assay: Competition of M-N#1 binding with fucose and galactose (immunoprecipitation)). Conditions: increasing amounts of sugar, lysates from radiolabelled MT-450 cells.
Parameters: species or system rat
Experimental: Immunoprecipitation: cells were labeled by incubation with (^35S)L-methionine ([…]) in methionine-free RPMI medium supplemented with dialyzed FCS for 4 h. For a pulse-chase analysis, cells were incubated with (^35S)L-methionine ([…]) in methionine-free RPMI medium supplemented with dialyzed FCS for 15 minutes, then washed and incubated further with methionine-containing medium. For immunoprecipitations, cells were lyzed in RIPA (radioimmunoprecipitation) buffer, and aliquots were immunoprecipitated with 5 μg of antibodies. To purify proteins which bind to Ulex europaeus lectin, the cells were lyzed with PBS/1% NP40/1 mM PMSF and centrifuged, and the lysates were incubated with Ulex europaeus lectin beads at 4° C. for one hour. The beads were then washed three times with PBS, and the excess buffer was removed. The beads were boiled in 1% SDS/20 mM phosphate at pH 7.0. A 20-fold excess of RIPA buffer was then added, and the supernatant was used for the immunoprecipitation after removal of the Ulex europaeus lectin beads. In experiments in which immunoprecipitated proteins were treated with 0.5 U of N-glycosidase F, 2.5 mU of O-glycosidase or 5 mU of neuraminidase, the antigen-antibody matrix bead complex was initially washed in 100 mM phosphate buffer, pH 7.0. Buffer was removed and then the matrix beads were boiled in 5 μl of 1% SDS/20 mM phosphate, pH 7.0, for 5 minutes. The enzymes were then added in 45 μl of 20 mM phosphate buffer (pH 7.0)/1 mM CaSO4. The efficiency of the enzyme reaction was confirmed by comparison with similar digestive processes on immunoprecipitated CD44v4-v7 protein, which is digested by each of said enzymes. Immunoprecipitated proteins were removed by SDS (sodium dodecyl sulfate) PAGE (polyacrylamide gel electrophoresis). Gels were treated with PPO (2,5-diphenyloxazole) and exposed to X-ray sensitive film material.
Competition of M-N#1 binding with fucose and galactose. […]

Compound | Effect on protein binding to M-N#1 antibody
O=C[C@H](O)[C@@H](O)[C@@H](O)[C@H](O)CO [D-galactose] | inhibited
C[C@@H](O)[C@H](O)[C@H](O)[C@@H](O)C=O [D-fucose] | inhibited
C[C@H](O)[C@@H](O)[C@@H](O)[C@H](O)C=O [L-Fucose] | no effect
